Where a name gives a salt, the structure may show the parent alone.

As usually defined, the Ki is a dissociation constant, usually derived from enzyme kinetics or from competition with a known ligand.

The target in one assay is T1, AXL (Homo sapiens, UniProt P30530).
T1 sequence (P30530 26-894): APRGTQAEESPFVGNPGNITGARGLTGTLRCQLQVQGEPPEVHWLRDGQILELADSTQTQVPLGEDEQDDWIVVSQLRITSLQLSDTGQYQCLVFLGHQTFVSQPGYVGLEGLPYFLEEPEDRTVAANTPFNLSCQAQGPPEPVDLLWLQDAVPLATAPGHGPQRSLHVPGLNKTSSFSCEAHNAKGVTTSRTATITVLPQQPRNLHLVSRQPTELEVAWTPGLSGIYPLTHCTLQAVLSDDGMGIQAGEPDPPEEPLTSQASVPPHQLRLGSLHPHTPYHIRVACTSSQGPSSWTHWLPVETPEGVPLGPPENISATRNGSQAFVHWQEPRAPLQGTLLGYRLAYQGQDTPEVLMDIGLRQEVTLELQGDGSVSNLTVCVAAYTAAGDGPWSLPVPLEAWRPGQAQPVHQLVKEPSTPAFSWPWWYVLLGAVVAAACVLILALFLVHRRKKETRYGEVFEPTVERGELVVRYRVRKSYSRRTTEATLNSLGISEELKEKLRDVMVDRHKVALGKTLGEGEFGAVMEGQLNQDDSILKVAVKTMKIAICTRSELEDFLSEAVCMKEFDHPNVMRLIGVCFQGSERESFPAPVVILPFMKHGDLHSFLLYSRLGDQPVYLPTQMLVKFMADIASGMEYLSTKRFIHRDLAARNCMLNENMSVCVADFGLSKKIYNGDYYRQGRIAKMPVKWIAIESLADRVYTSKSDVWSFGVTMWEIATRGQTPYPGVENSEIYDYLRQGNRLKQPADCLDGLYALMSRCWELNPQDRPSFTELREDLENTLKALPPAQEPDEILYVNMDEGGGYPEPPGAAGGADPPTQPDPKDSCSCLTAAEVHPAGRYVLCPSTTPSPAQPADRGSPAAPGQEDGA
The assay is described as follows: IMAP fluorescence polarization kinase assay, AXL. In kind it is biochemical. The following applies: ATP 24.7 μM, enzyme 2.5 nM, 240 minutes, read-out: AXL inhibitory constant (Ki). The procedure:
(§1) Activities of compounds against each of TYRO3, AXL, and MERTK as well as against FLT3, were determined using an immobilized metal ion affinity-based fluorescence polarization (“IMAP”) assay. A fluorescently-labeled substrate peptide was phosphorylated in the kinase reaction, after which a binding solution containing large trivalent metal-based nanoparticles was added and the phosphorylated substrate binds to these beads. This reduces the rotational speed of the substrate which is then detected using fluorescence polarization as a read-out.
(§2) The substrates used for each enzyme are as follows: AXL: 5F1-KKKKEEIYFFFG-NH2(SEQ ID NO:1); FLT3: 5F1-KKKKEEIYFFF-NH2 (SEQ ID NO:2); MERTK: 5F1-EFPIYDFLPAKKK-NH2 (SEQ ID NO:3); and TYRO3: 5F1-EFPIYDFLPAKKK-NH2 (SEQ ID NO:4).
(§3) This assay was performed in a 384-well, polystyrene microplate in a final volume of 8 μl. Substrate (final concentration=400 nM), ATP (final concentrations=24.7μM for AXL; 2.74 μM for FLT3; 2.69 μM for MERTK; and 54.0 μM for TYRO3), compounds and enzyme (final concentrations=2.5 nM for AXL, FLT3 and TYRO3; 1.5 nM for MERTK) were pipetted in this order into the appropriate reaction buffer (AXL: 50 mM HEPES, pH 8.0, 1 mM DTT, 10 mM MgCl2, 0.01% BRU35, 0.01% Triton X-100; FLT3: 50 mM HEPES, pH 8.0, 1 mM DTT, 10 mM MgCl2, 0.01% Triton X-100, 0.01% NP40; MERTK/TYRO3: 50 mM HEPES, pH 8.0, 1 mM DTT, 10 mM MgCl2, 0.01% Triton X-100) and incubated at room temperature for varying times (AXL, FLT3 and MERTK: 240 minutes; TYRO3: 60 minutes). IMAP binding solution was then dispensed, the plate incubated for 60 minutes at room temperature and the fluorescence polarization measured. Data were analyzed using XLfit.
(In general: In fluorescence polarisation assays a small probe gives low polarisation when free and higher when bound to something large.)

For another assay, the target named is T2, TYRO3 (Homo sapiens, UniProt Q06418).
T2 sequence (Q06418 41-890): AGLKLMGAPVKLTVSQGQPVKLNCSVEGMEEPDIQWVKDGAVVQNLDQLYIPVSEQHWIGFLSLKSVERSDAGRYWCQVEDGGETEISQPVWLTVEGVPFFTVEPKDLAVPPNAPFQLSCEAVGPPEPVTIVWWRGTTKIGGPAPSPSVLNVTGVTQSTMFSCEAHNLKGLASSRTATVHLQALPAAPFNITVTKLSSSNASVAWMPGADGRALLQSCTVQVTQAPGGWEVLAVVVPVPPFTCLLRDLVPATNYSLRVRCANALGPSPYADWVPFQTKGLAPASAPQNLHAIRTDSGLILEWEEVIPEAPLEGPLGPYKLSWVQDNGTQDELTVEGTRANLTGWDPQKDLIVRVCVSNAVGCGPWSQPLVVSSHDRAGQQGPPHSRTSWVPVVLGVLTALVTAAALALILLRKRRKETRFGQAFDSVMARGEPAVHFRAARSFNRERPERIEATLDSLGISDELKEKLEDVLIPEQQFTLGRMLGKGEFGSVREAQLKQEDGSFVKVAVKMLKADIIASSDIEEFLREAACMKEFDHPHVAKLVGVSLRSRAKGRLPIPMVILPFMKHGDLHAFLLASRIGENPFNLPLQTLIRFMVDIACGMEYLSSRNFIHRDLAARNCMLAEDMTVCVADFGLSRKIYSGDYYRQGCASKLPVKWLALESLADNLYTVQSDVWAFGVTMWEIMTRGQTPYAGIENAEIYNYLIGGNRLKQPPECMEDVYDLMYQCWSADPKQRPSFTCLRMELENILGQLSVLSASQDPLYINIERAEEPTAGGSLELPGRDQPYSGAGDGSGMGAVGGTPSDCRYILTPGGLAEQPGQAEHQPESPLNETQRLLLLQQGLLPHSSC
As to the kind of experiment: IMAP fluorescence polarization kinase assay, TYRO3. In kind it is biochemical. To be noted: ATP 54.0 μM, enzyme 2.5 nM, 60 minutes, read-out: TYRO3 inhibitory constant (Ki). The procedure: as §1, §2, §3

As for `N[C@H]1CC[C@H](Nc2c(C(=O)NCc3ccc(-n4ccnc4)cc3)cnc3[nH]c(C4CCCC4)cc23)CC1` [Compound 126], the Ki on AXL was 0.1 to 1 µM; at TYRO3, less than 0.1 µM.
Turning to `CCCc1cc2c(N[C@H]3CC[C@H](N)CC3)c(-c3nccs3)cnc2[nH]1` [Compound 117], the values for the Ki at AXL and at TYRO3 were 0.1 to 1 µM and less than 0.1 µM, respectively.
Consider `CCCc1cc2c(N[C@H]3CC[C@H](N)CC3)c(-c3cc(OC)ncn3)cnc2[nH]1` [Compound 122], for which the Ki at AXL was 0.1 to 1 µM; at TYRO3 it was less than 0.1 µM.
`CCCc1cc2c(N[C@H]3CC[C@H](N)CC3)c(-c3ccc(S(=O)(=O)N4CCOCC4)cn3)cnc2[nH]1` [Compound 115]: the Ki at AXL and on TYRO3 was less than 0.1 µM each time.
As for `CCCc1cc2c(N[C@H]3CC[C@H](O)CC3)c(C(=O)NC3CCN(c4ncccn4)CC3)cnc2[nH]1` [Compound 104], the figures for the Ki on AXL and on TYRO3 were 1 to 10 µM and less than 0.1 µM, respectively.
On to `CCOC(C)c1cc2c(N[C@H]3CC[C@H](N)CC3)c(C(=O)Nc3ccc(F)cc3)cnc2[nH]1` (stereo partly shown) [Compound 152], for which the Ki at AXL was greater than 10 µM; at TYRO3, 0.1 to 1 µM.
Take `CCCc1cc2c(N[C@H]3CC[C@H](N)CC3)c(-c3ccnc(N)n3)cnc2[nH]1` [Compound 123]: the Ki on AXL and on TYRO3 was less than 0.1 µM throughout.
Consider `CCCCCc1cc2c(N[C@H]3CC[C@H](N)CC3)c(C(=O)NCc3ccc(-n4ccnc4)cc3)cnc2[nH]1` [Compound 133], for which the Ki is 0.1 to 1 µM on AXL and less than 0.1 µM on TYRO3.
On to `CCCc1cc2c(N[C@H]3CC[C@H](N)CC3)c(-c3cc(N)ncn3)cnc2[nH]1` [Compound 116], for which the figures for the Ki at AXL and on TYRO3 were 0.1 to 1 µM and less than 0.1 µM, respectively.
In the case of `CCCc1cc2c(N[C@H]3CC[C@H](N)CC3)c(-c3ccccn3)cnc2[nH]1` [Compound 113], the Ki on AXL was 1 to 10 µM; on TYRO3, less than 0.1 µM.
With `CCCc1cc2c(N[C@H]3CC[C@H](N)CC3)c(-c3ccc(COC(C)C)cn3)cnc2[nH]1` [Compound 130], the Ki was 1 to 10 µM at AXL and less than 0.1 µM at TYRO3.
Taken in the same sequence, the figures for `CCCc1cc2c(N[C@H]3CC[C@H](N)CC3)c(C(=O)NC)cnc2[nH]1` [Compound 139] were 0.1 to 1 µM and less than 0.1 µM.
`CCC[C@H](C)c1cc2c(N[C@H]3CC[C@H](N)CC3)c(C(=O)Nc3ccc(F)cc3)cnc2[nH]1` [Compound 149]: the Ki is 1 to 10 µM on AXL and less than 0.1 µM on TYRO3.
Take `CCCc1cc2c(N[C@H]3CC[C@H](N)CC3)c(C(=O)NCc3ccc(-n4ccnc4)cc3)cnc2[nH]1` [Compound 121]: the Ki on AXL was 0.1 to 1 µM; on TYRO3 it was less than 0.1 µM.
Regarding `CCC(C)c1cc2c(N[C@H]3CC[C@H](O)CC3)c(-c3ccc(S(=O)(=O)N4CCOCC4)cn3)cnc2[nH]1` (stereo partly shown) [Compound 159], the results for the Ki at AXL and at TYRO3 were greater than 10 µM and 1 to 10 µM, respectively.
As for `CCc1cc2c(N[C@H]3CC[C@H](N)CC3)c(C(=O)Nc3ccc(F)cc3)cnc2[nH]1` [Compound 136], the Ki at AXL is 0.1 to 1 µM; on TYRO3, less than 0.1 µM.
As to `CCCc1cc2c(N[C@H]3CC[C@H](N)CC3)c(-c3cnn(C)c3)cnc2[nH]1` [Compound 108, (1r,4r)-N1-(5-(1-methyl-1H-pyrazol-4-yl)-2-propyl-1H-pyrrolo[2,3-b]pyridine-4-yl)cyclohexane-1,4-diamine hydrochloride], the Ki at AXL is 1 to 10 µM; at TYRO3, less than 0.1 µM.
Taken in the same sequence, the figures for `C#Cc1cc2c(N[C@H]3CC[C@H](N)CC3)c(C(=O)Nc3ccc(F)cc3)cnc2[nH]1` [Compound 128, [4-1(4-aminocyclohexyl)amino]-2-ethynyl-N-(4-fluorophenyl)-1H-pyrrolo[2,3-b]pyridine-5-carboxamide] were 1 to 10 µM and 0.1 to 1 µM.
Consider `CC[C@H](C)c1cc2c(N[C@H]3CC[C@H](N)CC3)c(C(=O)Nc3ccc(F)cc3)cnc2[nH]1` [Compound 156], for which the results for the Ki on AXL and at TYRO3 were 1 to 10 µM and less than 0.1 µM, respectively.
For the compound `CCC(C)c1cc2c(N[C@H]3CC[C@H](N)CC3)c(C(=O)Nc3ccc(F)cc3)cnc2[nH]1` (stereo partly shown) [Compound 134], the Ki is 1 to 10 µM on AXL and less than 0.1 µM at TYRO3.
As for `CCCc1cc2c(N[C@H]3CC[C@H](N)CC3)c(Br)cnc2[nH]1` [Compound 142], the Ki on AXL is 0.1 to 1 µM; on TYRO3, less than 0.1 µM.
Take `Cc1cc2c(N[C@H]3CC[C@H](N)CC3)c(C(=O)Nc3ccc(F)cc3)cnc2[nH]1` [Compound 103]: the Ki is 0.1 to 1 µM on AXL and 1 to 10 µM at TYRO3.
Taken in the same sequence, the figures for `CCC(C)c1cc2c(N[C@H]3CC[C@H](O)CC3)c(C(=O)NC3CCN(c4ncccn4)CC3)cnc2[nH]1` (stereo partly shown) [Compound 157] were greater than 10 µM and 1 to 10 µM.
Take `COC(C)c1cc2c(N[C@H]3CC[C@H](N)CC3)c(C(=O)Nc3ccc(F)cc3)cnc2[nH]1` (stereo partly shown) [Compound 145]: the figures for the Ki at AXL and at TYRO3 were greater than 10 µM and 0.1 to 1 µM, respectively.
With `CCCC(O)c1cc2c(N[C@H]3CC[C@H](N)CC3)c(Br)cnc2[nH]1` (stereo partly shown) [Compound 137], the Ki on AXL was 1 to 10 µM; at TYRO3, 0.1 to 1 µM.
Taken in the same sequence, the figures for `CCCc1cc2c(N[C@H]3CC[C@H](N)CC3)c(-c3ccnc(N4CCCC4)n3)cnc2[nH]1` [Compound 118, (1r,4r)-N1-(2-propyl-5-(2-(pyrrolidin-1-yl)pyrimidin-4-yl)-1H-pyrrolo[2,3-b]pyridine-4-yl)cyclohexane-1,4-diamine hydrochloride] were 0.1 to 1 µM and less than 0.1 µM.
Taken in the same sequence, the figures for `CCCc1cc2c(N[C@H]3CC[C@H](N)CC3)c(-c3cc(N)ccn3)cnc2[nH]1` [Compound 131] were 1 to 10 µM and less than 0.1 µM.
Consider `N[C@H]1CC[C@H](Nc2c(C(=O)NCc3ccc(-n4ccnc4)cc3)cnc3[nH]c(-c4ccccc4)cc23)CC1` [Compound 110], for which the Ki was 1 to 10 µM on AXL and less than 0.1 µM on TYRO3.
As to `CCCc1cc2c(N[C@H]3CC[C@H](N)CC3)c(-c3ccc(F)cn3)cnc2[nH]1` [Compound 114], the Ki on AXL was 0.1 to 1 µM; at TYRO3, less than 0.1 µM.

(Values after patent US20200071326A1, “TAM KINASE INHIBITORS” (Syros Pharmaceuticals, Inc., priority 2017, published 2020).)
